Results from patent publication US5466815A, “Tetrazole derivatives of bile acids, and their use as lipid level lowering medicaments” (Hoechst Aktiengesellschaft, priority 1993, dated 1995).

Target: T1, intestinal bile acid transportation system (Na^+ -dependent) in brush border membrane vesicles of the ileum (Oryctolagus cuniculus, UniProt Q28727)
T1 construct: Brush border membrane vesicles were prepared from the intestinal cells of the small intestine; from tissue; host or cells: brush border membrane vesicles from the terminal 7/10 of the small intestine (ileum) of male New Zealand rabbits
T1 sequence (Q28727 1-347): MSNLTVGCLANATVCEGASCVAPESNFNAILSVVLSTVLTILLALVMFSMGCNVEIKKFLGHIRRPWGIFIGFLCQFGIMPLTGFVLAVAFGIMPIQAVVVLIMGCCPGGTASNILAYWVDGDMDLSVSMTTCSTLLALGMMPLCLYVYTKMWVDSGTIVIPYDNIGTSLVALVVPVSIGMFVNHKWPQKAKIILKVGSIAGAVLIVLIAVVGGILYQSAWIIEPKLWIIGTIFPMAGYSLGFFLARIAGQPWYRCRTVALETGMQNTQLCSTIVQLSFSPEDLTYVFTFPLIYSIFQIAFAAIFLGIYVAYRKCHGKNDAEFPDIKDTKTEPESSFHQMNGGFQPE
Test: Inhibition of [^3 H]-taurocholate uptake in brush border membrane vesicles of the ileum of rabbits
Format: biochemical, rabbit
Conditions: 50 μM taurocholate, usually 1 minute; for IC50Na TCDC / IC50Na -substance: quotient of IC50Na of reference taurochenodeoxycholate (TCDC) and IC50Na of test substance, Na^+ -dependent transportation content (Na-T-B minus K-T-B); for IC50 -TCDC / IC50 -substance: quotient of IC50 of reference taurochenodeoxycholate (TCDC) and IC50 of test substance, [^3 H]-taurocholate uptake
Experimental: The compounds according to the invention were tested biologically by determination of the inhibition of [^3 H]-taurocholate uptake in brush border membrane vesicles of the ileum of rabbits. The inhibition test was carried out as follows:
1. Preparation of Brush Border Membrane Vesicles from the Ileum of Rabbits
Brush border membrane vesicles were prepared from the intestinal cells of the small intestine by the so-called Mg^2+ precipitation method. Male New Zealand rabbits (2 to 2.5 kg bodyweight) were sacrificed by intravenous injection of 0.5 ml of an aqueous solution of 2.5 mg Tetracain HCl, 100 T61^R and 25 mg of mebezonium iodide. The small intestine was rinsed with ice-cold physiological saline solution. The terminal […] of the small intestine (measured in the oral-rectal direction, i.e. the terminal ileum, which contains the active Na^+ -dependent bile acid transportation system) was used for preparation of the brush border membrane vesicles. The intestines were frozen in plastic bags under nitrogen at -80° C. For preparation of the membrane vesicles, the frozen intestines were […] at 30° C. in a water-bath. The mucosa was scraped off and suspended in 60 ml of ice-cold 12 mM Tris/HCl buffer (pH 7.1)/300 mM mannitol, 5 mM EGTA/10 mg/l of phenylmethylsulfonylfluoride/1 mg/l of trypsin inhibitor for soya beans (32 U/mg)/0.5 mg/l of trypsin inhibitor from bovine lung (193 U/mg)/5 mg/l of bacitracin. After dilution to 300 ml with ice-cold distilled water, the mixture was homogenized with an Ultraturrax (18-rod, IKA Werk Staufen, FRG) for 3 minutes at 75 % of the maximum power, while cooling with ice. After addition of 3 ml of 1M MgCl2 solution (final concentration 10 mM), the mixture was left to stand at 0° C. for exactly 1 minute. By addition of Mg^2+, the cell membranes aggregate and precipitate, with the exception of the brush border membranes. After centrifugation at 3000×g (5000 revolutions per minute, SS-34 rotor) for 15 minutes, the precipitate is discarded and the supernatant, which contains the brush border membranes, was centrifuged at […] (15000 revolutions per minute, SS-34 rotor) for 30 minutes. The supernatant was discarded and the precipitate was rehomogenized in 60 ml of 12 mM tris/HCl buffer (pH 7.1)/60 mM mannitol, 5 mM EGTA using a Potter Elvejhem homogenizer (Braun, Melsungen, 900 revolutions per minute, 10 strokes). After addition of 0.1 ml of 1M MgCl2 solution and an incubation time of 15 minutes at 0° C., the mixture was centrifuged again at 3000×g for 15 minutes. The supernatatant was then centrifuged again at 46000×g (15000 revolutions per minute, SS-34 rotor) for 30 minutes. The precipitate was taken up in 30 ml of 10 mM Tris/Hepes buffer (pH 7.4)/300 mM mannitol and resuspended homogeneously by 20 strokes in a Potter Elvejhem homogenizer at 1000 revolutions per minute. After centrifugation at 48000×g (20000 revolutions per minute, SS-34 rotor) for 30 minutes, the precipitate was taken up in 0.5 to 2 ml of Tris/Hepes buffer (pH 7.4)/280 mM mannitol (final concentration 20 mg/ml) and resuspended with the aid of a tuberculin syringe with a 27 gauge needle. The vesicles were either used for transportation studies immediately after preparation or stored at -196° C. in 4 mg portions in liquid nitrogen.
2. Inhibition of the Na^+ -dependent [^3 H]-taurocholate Uptake in the Brush Border Membrane Vesicles of the Ileum
The uptake of substrates into the brush border membrane vesicles described above was determined by means of the so-called membrane filtration technique. 10 μl of the vesicle suspension (100 μg of protein) were pipetted as drops onto the wall of a polystyrene incubation tube (11×70 mm) which contained the incubation medium with the corresponding ligands (90 μl). […]

C[C@H](Cc1nn[nH]n1)[C@H]1CC[C@H]2[C@@H]3[C@H](O)C[C@@H]4C[C@H](O)CC[C@]4(C)[C@H]3C[C@H](O)[C@]12C [Example 4]
IC50Na TCDC / IC50Na -substance: 0.38
IC50 -TCDC / IC50 -substance: 0.28

CC(CCCc1nn[nH]n1)C1CCC2C3C(O)CC4CC(O)CCC4(C)C3CC(O)C12C (centres unmarked) [Example 14]
IC50Na TCDC / IC50Na -substance: 1.35
IC50 -TCDC / IC50 -substance: 1.20

C[C@H](CCCc1nn[nH]n1)[C@H]1CC[C@H]2[C@@H]3[C@H](O)C[C@@H]4C[C@@H](OCCO)CC[C@]4(C)[C@H]3C[C@H](O)[C@]12C [Example 16]
IC50Na TCDC / IC50Na -substance: 0.25
IC50 -TCDC / IC50 -substance: 0.26

C[C@H](CCC(=O)N[C@H]1CC[C@@]2(C)[C@@H](C1)C[C@@H](O)[C@@H]1[C@@H]2C[C@H](O)[C@]2(C)[C@@H]([C@H](C)CCC(=O)Nc3nn[nH]n3)CC[C@@H]12)[C@H]1CC[C@H]2[C@@H]3[C@H](O)C[C@@H]4C[C@H](O)CC[C@]4(C)[C@H]3C[C@H](O)[C@]12C [Example 22]
IC50Na TCDC / IC50Na -substance: 1.35
IC50 -TCDC / IC50 -substance: 1.66

C[C@H](CCC(=O)Nc1nn[nH]n1)[C@H]1CC[C@H]2[C@@H]3[C@H](O)C[C@@H]4C[C@H](O)CC[C@]4(C)[C@H]3C[C@H](O)[C@]12C [Example 24]
IC50Na TCDC / IC50Na -substance: 1.27
IC50 -TCDC / IC50 -substance: 0.97

C[C@H](CCC(=O)NCCO[C@H]1CC[C@@]2(C)[C@@H](C1)C[C@@H](O)[C@@H]1[C@@H]2C[C@H](O)[C@]2(C)[C@@H]([C@H](C)CCCc3nn[nH]n3)CC[C@@H]12)[C@H]1CC[C@H]2[C@@H]3[C@@H](O)C[C@@H]4C[C@H](O)CC[C@]4(C)[C@H]3CC[C@]12C [Example 27]
IC50Na TCDC / IC50Na -substance: 0.25
IC50 -TCDC / IC50 -substance: 0.26

C[C@H](CCC(=O)NCc1nn[nH]n1)[C@H]1CC[C@H]2[C@@H]3[C@H](O)C[C@@H]4C[C@H](O)CC[C@]4(C)[C@H]3C[C@H](O)[C@]12C [Example 29]
IC50Na TCDC / IC50Na -substance: 0.48
IC50 -TCDC / IC50 -substance: 0.46
